Data: US20220280507A1, “USES OF 5-METHYLTETRAHYDROFOLATE AND ITS COMPOSITION” (Lianyungang Jinkang Hexin Pharmaceutical Co., Ltd., priority 2019, published 2022)

Legend:
[1] = tested on: intestinal barrier function; settings: chronic alcohol-fed rats, 4 mg·Kg−1
Description: 96 SPF-grade SD rats, half female and half male, were chosen with an average weight of 176-220 g at the beginning of the experiment, and randomly divided into vehicle control group (glucose, 10 g·Kg−1) and model control group (liquor, 6 g·Kg−1), 5-methyltetrahydrofolate calcium group (folic acid, 4 mg·Kg−1, glucose, 10 g·Kg−1), half female and half, 16 rats in each group. […] The day on which the dose of alcohol reached 6g·Kg−1 was defined as the first day of modeling. The intestinal permeability of rats was measured at Weeks 2 and 8, then 5 rats were sacrificed at random, blood and liver tissues were taken.
An oral sugar test was carried out to evaluate intestinal permeability. After fasting for 8 h, the rats were given 2.0 ml of sugar solution,
with lactulose (107 mg/kg), mannitol (30 mg/kg), sucralose (15 mg/kg) and sucrose (570 mg/kg). The rats were individually housed in metabolic cages, and urine was collected. The sugar concentration in the urine was determined by gas chromatography. Blood samples were used to analyze endotoxin in serum with Kinetic-QLC kit.

hyperlipemia rats = assay: Hyperlipemia rats (high-fat diet), biochemical indexes TG, TC, SOD, MDA; assay type: in vivo, SD rats
Description: Experiment 5 Effect of 5-Methyltetrahydrofolate Calcium on Hyperlipemia Rats
7 weeks later, one rat in the control group and one rat in the model group were sacrificed for liver tissue section to check fatty degeneration of hepatocytes (see Table 7) to confirm whether modeling was successful. The remaining 40 modeling rats were randomly divided into low-dose (1 mg·Kg−1) group, medium-dose (2 mg·Kg−1) group, high-dose (4 mg·Kg−1) group, positive drug group, and model group.
Bicyclol (place of origin: Beijing Xiehe Pharmaceutical Factory, specification: 25 mg/tablet, batch number: H20040467) was used as a positive drug.
After successful modeling, rats were administered drugs with dosages as prescribed for 60 consecutive days, continued to be fed with high-fat diet, and dissected on the 61st day. Liver was harvested and weighed, liver index was calculated, right lobe tissue was taken to prepare frozen sections, and fat staining was performed with Sudan III for pathological scoring according to guidelines for diagnosis and treatment of NAFLD. Another liver tissue was taken to prepare homogenate, and total cholesterol (TC), triglyceride (TG), malondialdehyde (MDA), and superoxide dismutase (SOD) in serum were detected.

IL-1β = assay: Alcoholic fatty liver model, IL-1β in hippocampus tissue (ELISA); assay type: in vivo, SD rats; settings: liquor model, n=16
Description: (§1) According to their weight, they were randomly divided into vehicle control group (purified water, ig), model control group (liquor, 10 ml·Kg−1), positive control group (bicyclol, 50 mg·Kg−1, ig), folic acid calcium salt high-dose group (4 mg·Kg−1), folic acid calcium salt medium-dose group (2 mg·Kg−1), folic acid calcium salt low-dose group (1 mg·Kg−1), in half female and half male, and 16 rats in each group. Purified water was used as a negative control, and bicyclol (place of origin: Beijing Xiehe Pharmaceutical Factory, specification: 25 mg/tablet, batch number: H20040467) was used as a positive control drug. Route of administration: all were administered by oral gavage. Dosage of administration: 1 mg·Kg−1, 2 mg·Kg−1, and 4 mg·Kg−1. Frequency of administration: once a day for 60 consecutive days.
(§2) Method of administration: administration started at prescribed doses on the day of modeling for 60 consecutive days and ended at the 60th day. At the same time, rats in each group were weighed every other week during administration period to monitor their body weight changes. On the 61st day, rats were dissected and serum was collected for determination of triglyceride (TG), total cholesterol (TC), malondialdehyde (MDA), superoxide dismutase (SOD) and liver histopathologic examination. The brain tissue of rats was taken out, and hippocampus tissue was separated on ice plate, prepared to homogenate with a mass fraction of 10% with purified water, then the homogenate was centrifuged to obtain supernatant. ELISA was used to detect the levels of inflammatory factors TNF-α and IL-1β in hippocampus tissue with continuous spectrum scanning microplate reader.

[2] = Alcoholic fatty liver model, body weight during administration period; assay type: in vivo, SD rats; settings: liquor model
Description: as §1, §2

With `CN1c2c([nH]c(N)nc2=O)NCC1CNc1ccc(C(=O)N[C@@H](CCC(=O)O)C(=O)O)cc1` (stereo partly drawn) [5-methyltetrahydrofolate, N-[4-[[(2-amino-1,4,5,6,7,8-hexahydro-4-oxo-5-methyl-(6S), -(6R), and (6R,S)-pteridyl)methyl)amino)toluoyl-glutamic acid] as the compound, how does the Intestinal barrier function [1] read?
Its Intestinal barrier function is “can improve intestinal barrier function in the presence of alcohol”.

And the Serum endotoxin level [1]?
The Serum endotoxin level was “reduce serum endotoxin level”.

Which MDA (hyperlipemia rats; 1 mg·kg−1·d−1, 60 d) does the source give for 5-methyltetrahydrofolate calcium here?
The MDA was 45.20 ± 8.17 nmol/mgprot.

And the SOD (hyperlipemia rats; 1 mg·kg−1·d−1, 60 d)?
Its SOD is 234.20 ± 21.36 U/mgprot.

And the TC (hyperlipemia rats; 1 mg·kg−1·d−1, 60 d)?
Its TC is 1.45 ± 0.38 mmol/L.

And the TG (hyperlipemia rats; 1 mg·kg−1·d−1, 60 d)?
Its TG is 1.07 ± 0.33 mmol/L.

What about the MDA (hyperlipemia rats; 2 mg·kg−1·d−1, 60 d) of the same compound?
The MDA was 42.26 ± 9.35 nmol/mgprot.

What about the SOD (hyperlipemia rats; 2 mg·kg−1·d−1, 60 d) of the same compound?
Its SOD is 257.41 ± 30.29 U/mgprot.

What about the TC (hyperlipemia rats; 2 mg·kg−1·d−1, 60 d) of the same compound?
The TC was 1.57 ± 0.36 mmol/L.

And the TG (hyperlipemia rats; 2 mg·kg−1·d−1, 60 d)?
Its TG is 1.03 ± 0.55 mmol/L.

And the MDA (hyperlipemia rats; 4 mg·kg−1·d−1, 60 d)?
Its MDA is 40.98 ± 11.37 nmol/mgprot.

And the SOD (hyperlipemia rats; 4 mg·kg−1·d−1, 60 d)?
Its SOD is 260.97 ± 30.04 U/mgprot.

What about the TC (hyperlipemia rats; 4 mg·kg−1·d−1, 60 d) of the same compound?
Its TC is 1.50 ± 0.34 mmol/L.

What about the TG (hyperlipemia rats; 4 mg·kg−1·d−1, 60 d) of the same compound?
Its TG is 1.05 ± 0.63 mmol/L.

And the “IL-1β in hippocampus tissue” value (IL-1β; 1 mg·kg−1·d−1 ig 60 d)?
The value was 63.05 ± 5.31 μg · g^−1 prot.

What about the “IL-1β in hippocampus tissue” value (IL-1β; 2 mg·kg−1·d−1 ig 60 d) of the same compound?
Its value is 63.24 ± 13.44 μg · g^−1 prot.

What about the “IL-1β in hippocampus tissue” value (IL-1β; 4 mg·kg−1·d−1 ig 60 d) of the same compound?
The value was 55.21 ± 3.59 μg · g^−1 prot.

What about the Body weight ([2]; 1 mg·kg−1·d−1 ig, Week 0, n=16) of the same compound?
The Body weight was 195.64 g.

What about the Body weight ([2]; 1 mg·kg−1·d−1 ig, Week 1, n=16) of the same compound?
The Body weight was 215.16 g.

And the Body weight ([2]; 1 mg·kg−1·d−1 ig, Week 2, n=16)?
The Body weight was 282.30 g.

What about the Body weight ([2]; 1 mg·kg−1·d−1 ig, Week 3, n=16) of the same compound?
The Body weight was 299.34 g.

And the Body weight ([2]; 1 mg·kg−1·d−1 ig, Week 4, n=16)?
The Body weight was 312.99 g.

What about the Body weight ([2]; 1 mg·kg−1·d−1 ig, Week 5, n=16) of the same compound?
Its Body weight is 317.48 g.

And the Body weight ([2]; 1 mg·kg−1·d−1 ig, Week 6, n=16)?
The Body weight was 334.47 g.

What about the Body weight ([2]; 1 mg·kg−1·d−1 ig, Week 7, n=16) of the same compound?
The Body weight was 355.89 g.

And the Body weight ([2]; 1 mg·kg−1·d−1 ig, Week 8, n=16)?
The Body weight was 375.85 g.

And the Body weight ([2]; 2 mg·kg−1·d−1 ig, Week 0, n=16)?
The Body weight was 190.85 g.

And the Body weight ([2]; 2 mg·kg−1·d−1 ig, Week 1, n=16)?
Its Body weight is 219.44 g.

What about the Body weight ([2]; 2 mg·kg−1·d−1 ig, Week 2, n=16) of the same compound?
The Body weight was 274.69 g.

And the Body weight ([2]; 2 mg·kg−1·d−1 ig, Week 3, n=16)?
The Body weight was 293.12 g.

And the Body weight ([2]; 2 mg·kg−1·d−1 ig, Week 4, n=16)?
Its Body weight is 321.78 g.

And the Body weight ([2]; 2 mg·kg−1·d−1 ig, Week 5, n=16)?
The Body weight was 328.10 g.

What about the Body weight ([2]; 2 mg·kg−1·d−1 ig, Week 6, n=16) of the same compound?
The Body weight was 345.05 g.

And the Body weight ([2]; 2 mg·kg−1·d−1 ig, Week 7, n=16)?
The Body weight was 352.90 g.

And the Body weight ([2]; 2 mg·kg−1·d−1 ig, Week 8, n=16)?
The Body weight was 383.69 g.

And the Body weight ([2]; 4 mg·kg−1·d−1 ig, Week 0, n=16)?
Its Body weight is 196.33 g.

And the Body weight ([2]; 4 mg·kg−1·d−1 ig, Week 1, n=16)?
The Body weight was 218.24 g.

And the Body weight ([2]; 4 mg·kg−1·d−1 ig, Week 2, n=16)?
The Body weight was 285.54 g.

What about the Body weight ([2]; 4 mg·kg−1·d−1 ig, Week 3, n=16) of the same compound?
Its Body weight is 296.05 g.

And the Body weight ([2]; 4 mg·kg−1·d−1 ig, Week 4, n=16)?
Its Body weight is 307.43 g.

What about the Body weight ([2]; 4 mg·kg−1·d−1 ig, Week 5, n=16) of the same compound?
Its Body weight is 321.49 g.

And the Body weight ([2]; 4 mg·kg−1·d−1 ig, Week 6, n=16)?
The Body weight was 349.47 g.

What about the Body weight ([2]; 4 mg·kg−1·d−1 ig, Week 7, n=16) of the same compound?
The Body weight was 372.49 g.

And the Body weight ([2]; 4 mg·kg−1·d−1 ig, Week 8, n=16)?
Its Body weight is 392.02 g.
